Assay results from PubChem BioAssay AID1845208 (Molecular Pharmacology Branch, DTP, NCI, 2023).

Tested on: NCI-H196 SCLC complex tumor spheroid viability
Assay: Anticancer human tumor NCI-H196 cell line growth inhibition;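 note: spheroids exposed to compounds for 7 days before readout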;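 for viability, T/C: 100% = DMSO vehicle control wells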
Details: for IC50: curve of first compound; for viability, T/C: stronger effect = lower value
From the text: Multicellular complex tumor spheroid response to DNA repair inhibitors in combination with DNA-damaging drugs
This study explores the anticancer activities of DNA-damaging drugs and inhibitors of DNA damage repair, both as single agents and in combinations. Complex tumor spheroids comprised of malignant cells, endothelial cells and mesenchymal stem cells served as an in vitro model for human solid tumors. This model system incorporates physiologically relevant features and patient-derived or established malignant cell lines with clinically relevant genetic alterations from many tumor types. Twenty-six patient-derived or established malignant cell lines were evaluated representing sarcoma, melanoma, small cell lung cancer (SCLC), non-small cell lung cancer (NSCLC), as well as bladder, ovarian and pancreatic cancers. The concentration ranges selected for each drug and investigational agent were based upon clinically achievable concentrations if the clinical Cmax of the agent was known.
Compounds. The drugs and compounds olaparib (NSC753686), talazoparib (NSC767125), berzosertib (NSC777718), elimusertib (NSC800525), nedisertib (NSC802822), VX-984 (NSC792969), AZD-1390 (NSC803789), temozolomide (NSC362856), topotecan (NSC609699), trabectedin (NSC813783), staurosporine (NSC755774), and gemcitabine (NSC613327) were obtained from the National Cancer Institute (NCI) Developmental Therapeutics Program Chemical Repository. The FDA-approved anticancer drug set is available from the Developmental Therapeutics Program at https://dtp.cancer.gov/organization/dscb/obtaining/available_plates.htm. […] The stock solutions were prepared in dimethyl sulfoxide (DMSO, Sigma-Aldrich, St. Louis, MO, cat. D2650) at 400-fold the tested concentration and stored at -70 degrees C. Prior to their use, the stock solutions were diluted in fresh medium and the final DMSO concentration in the assay was 0.25% (v/v). All drugs and investigational agents were tested over a range starting from a high concentration at or near the clinical Cmax and decreasing in half-log increments. If the clinical Cmax for an agent had not been determined, the highest concentration tested was 10 microM.
Cell Lines. The patient-derived cancer cell (PDC) lines: 156681-154-R-J1-PDC, 283228-195-R-J1-PDC, 287954-098-R-J1-PDC, 292921-168-R-J2-PDC, 349418-098-R-PDC, 425362-245-T-J1-PDC, 556581-035-R-J1-PDC, and BL0293-F563-PDC were received from the NCI Patient-Derived Models Repository (PDMR, https://pdmr.cancer.gov). The established cell lines HS-SY-2 (RRID:CVCL_8719), MPNST, and SYO-1 (RRID:CVCL_7146) were obtained from the Sloan Kettering Institute. The alveolar soft parts sarcoma cell line ASPS-1 (RRID:CVCL_S738) was established at the NCI and grown from internal seed stocks. The following established cell lines were purchased from the American Type Culture Collection (ATCC, Manassas, VA): G-401 (ATCC, cat. CRL-1441, RRID:CVCL_0270), SW982 (ATCC, cat. HTB-93, RRID:CVCL_1734), VA-ES-BJ (ATCC, cat. CRL-2138, RRID:CVCL_1785), NCI-H719 (ATCC, cat. CRL-5837, RRID:CVCL_1582), NCI-H196 (ATCC, cat. CRL-5823, RRID:CVCL_1509), NCI-H841 (ATCC, cat. CRL-5845, RRID:CVCL_1595), NCI-H1618 (ATCC, cat. CRL-5879, RRID:CVCL_1480), NCI-H1876 (ATCC, cat. CRL-5902, RRID:CVCL_1503), DMS 114 (ATCC, cat. CRL-2066; RRID:CVCL_1174), NCI-H211 (ATCC, cat. CRL-5824; RRID:CVCL_1529), and SW 1271 (ATCC, cat. CRL-2177, RRID:CVCL_1716). The small cell lung cancer cell line COR-L88 was purchased from Sigma-Aldrich (cat. 92031917-1VL, RRID:CVCL_1141). The non-small cell lung cancer cell lines NCI-H226 (RRID:CVCL_1544) and NCI-H322M (RRID:CVCL_1557) were established at the NCI and grown from internal seed stocks. Pooled donor human umbilical vein endothelial cells (HUVEC, Lonza, cat. CC-2519) and human mesenchymal stem cells (hMSC, Lonza, cat. PT-2501) were purchased from Lonza (Walkersville, MD).
Cell Culture. All cells were maintained in an incubator at 37 degrees C and 5% CO2 with 95% humidity. […]

CC(C)n1c(=O)n(C)c2cnc3cc(F)c(-c4ccc(OCCCN5CCCCC5)nc4)cc3c21 + CC[C@@]1(O)C(=O)OCc2c1cc1n(c2=O)Cc2cc3c(CN(C)C)c(O)ccc3nc2-1
IC50 (second compound 0.003 µM): > 10 µM | IC50 (second compound 0.00949 µM): > 10 µM | IC50 (second compound 0.03 µM): > 10 µM | IC50 (second compound 0.0949 µM): > 10 µM | IC50 (second compound 0.3 µM): > 10 µM | viability, T/C (second compound 0.003 µM, first compound 0.0316 µM): 102% | viability, T/C (second compound 0.003 µM, first compound 0.1 µM): 106% | viability, T/C (second compound 0.003 µM, first compound 0.316 µM): 105% | viability, T/C (second compound 0.003 µM, first compound 1 µM): 107% | viability, T/C (second compound 0.003 µM, first compound 3.16 µM): 110% | viability, T/C (second compound 0.003 µM, first compound 10 µM): 113% | viability, T/C (second compound 0.00949 µM, first compound 0.0316 µM): 105% | viability, T/C (second compound 0.00949 µM, first compound 0.1 µM): 107% | viability, T/C (second compound 0.00949 µM, first compound 0.316 µM): 109% | viability, T/C (second compound 0.00949 µM, first compound 1 µM): 112% | viability, T/C (second compound 0.00949 µM, first compound 3.16 µM): 110% | viability, T/C (second compound 0.00949 µM, first compound 10 µM): 103% | viability, T/C (second compound 0.03 µM, first compound 0.0316 µM): 102% | viability, T/C (second compound 0.03 µM, first compound 0.1 µM): 102% | viability, T/C (second compound 0.03 µM, first compound 0.316 µM): 104% | viability, T/C (second compound 0.03 µM, first compound 1 µM): 101% | viability, T/C (second compound 0.03 µM, first compound 3.16 µM): 95.9% | viability, T/C (second compound 0.03 µM, first compound 10 µM): 87.9% | viability, T/C (second compound 0.0949 µM, first compound 0.0316 µM): 116% | viability, T/C (second compound 0.0949 µM, first compound 0.1 µM): 113% | viability, T/C (second compound 0.0949 µM, first compound 0.316 µM): 104% | viability, T/C (second compound 0.0949 µM, first compound 1 µM): 86.5% | viability, T/C (second compound 0.0949 µM, first compound 3.16 µM): 74.9% | viability, T/C (second compound 0.0949 µM, first compound 10 µM): 71.9% | viability, T/C (second compound 0.3 µM, first compound 0.0316 µM): 110% | viability, T/C (second compound 0.3 µM, first compound 0.1 µM): 107% | viability, T/C (second compound 0.3 µM, first compound 0.316 µM): 108% | viability, T/C (second compound 0.3 µM, first compound 1 µM): 88.1% | viability, T/C (second compound 0.3 µM, first compound 3.16 µM): 78.5% | viability, T/C (second compound 0.3 µM, first compound 10 µM): 71.4%

O=C(c1cc(Cc2n[nH]c(=O)c3ccccc23)ccc1F)N1CCN(C(=O)C2CC2)CC1 + CC[C@@]1(O)C(=O)OCc2c1cc1n(c2=O)Cc2cc3c(CN(C)C)c(O)ccc3nc2-1
IC50 (second compound 0.003 µM): > 30 µM | IC50 (second compound 0.00949 µM): > 30 µM | IC50 (second compound 0.03 µM): > 30 µM | IC50 (second compound 0.0949 µM): > 30 µM | IC50 (second compound 0.3 µM): > 30 µM | viability, T/C (second compound 0.003 µM, first compound 0.0949 µM): 95.4% | viability, T/C (second compound 0.003 µM, first compound 0.3 µM): 95.2% | viability, T/C (second compound 0.003 µM, first compound 0.949 µM): 88.3% | viability, T/C (second compound 0.003 µM, first compound 3 µM): 88.2% | viability, T/C (second compound 0.003 µM, first compound 9.49 µM): 88.6% | viability, T/C (second compound 0.003 µM, first compound 30 µM): 85.6% | viability, T/C (second compound 0.00949 µM, first compound 0.0949 µM): 97.7% | viability, T/C (second compound 0.00949 µM, first compound 0.3 µM): 91.3% | viability, T/C (second compound 0.00949 µM, first compound 0.949 µM): 98.7% | viability, T/C (second compound 0.00949 µM, first compound 3 µM): 95.9% | viability, T/C (second compound 0.00949 µM, first compound 9.49 µM): 94.3% | viability, T/C (second compound 0.00949 µM, first compound 30 µM): 96.6% | viability, T/C (second compound 0.03 µM, first compound 0.0949 µM): 100% | viability, T/C (second compound 0.03 µM, first compound 0.3 µM): 98% | viability, T/C (second compound 0.03 µM, first compound 0.949 µM): 101% | viability, T/C (second compound 0.03 µM, first compound 3 µM): 103% | viability, T/C (second compound 0.03 µM, first compound 9.49 µM): 98.2% | viability, T/C (second compound 0.03 µM, first compound 30 µM): 92% | viability, T/C (second compound 0.0949 µM, first compound 0.0949 µM): 96.3% | viability, T/C (second compound 0.0949 µM, first compound 0.3 µM): 107% | viability, T/C (second compound 0.0949 µM, first compound 0.949 µM): 99.6% | viability, T/C (second compound 0.0949 µM, first compound 3 µM): 99.6% | viability, T/C (second compound 0.0949 µM, first compound 9.49 µM): 102% | viability, T/C (second compound 0.0949 µM, first compound 30 µM): 97.2% | viability, T/C (second compound 0.3 µM, first compound 0.0949 µM): 86.8% | viability, T/C (second compound 0.3 µM, first compound 0.3 µM): 90.9% | viability, T/C (second compound 0.3 µM, first compound 0.949 µM): 88.4% | viability, T/C (second compound 0.3 µM, first compound 3 µM): 93.9% | viability, T/C (second compound 0.3 µM, first compound 9.49 µM): 82.5% | viability, T/C (second compound 0.3 µM, first compound 30 µM): 83.1%
